The record followed here is BindingDB's records for doi:10.1021/jm801343r (University of Washington At Seattle, 2009).

By IC50 is commonly meant the concentration needed to halve the response being measured. Higher therefore signals lower potency.

Experiment in all cases: DHODH Inhibition Assay
In assay [1] the target is T1, Dihydroorotate dehydrogenase (quinone), mitochondrial (Plasmodium falciparum (isolate 3D7), UniProt Q08210).
T1 sequence (Q08210 whole entry): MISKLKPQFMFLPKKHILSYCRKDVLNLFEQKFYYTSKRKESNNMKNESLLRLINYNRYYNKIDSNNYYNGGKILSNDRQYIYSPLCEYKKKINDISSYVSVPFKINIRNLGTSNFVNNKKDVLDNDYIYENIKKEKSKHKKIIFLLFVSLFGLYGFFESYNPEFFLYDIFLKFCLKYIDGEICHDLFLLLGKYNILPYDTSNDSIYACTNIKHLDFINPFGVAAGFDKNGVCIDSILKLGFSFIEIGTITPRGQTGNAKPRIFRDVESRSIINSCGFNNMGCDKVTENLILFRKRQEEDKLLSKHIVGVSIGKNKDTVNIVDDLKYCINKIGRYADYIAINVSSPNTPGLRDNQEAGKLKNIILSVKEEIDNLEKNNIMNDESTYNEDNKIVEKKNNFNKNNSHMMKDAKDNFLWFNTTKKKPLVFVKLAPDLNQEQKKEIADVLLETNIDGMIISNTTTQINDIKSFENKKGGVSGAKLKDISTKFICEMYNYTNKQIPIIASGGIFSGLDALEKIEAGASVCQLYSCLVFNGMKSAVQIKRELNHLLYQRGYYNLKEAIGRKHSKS
As for the experimental part:
(§1) The assays were carried out by using a colorimetric DCIP method, which uses the colorimetric reagent 2, 6-dichlorophenolindophenol as the final electron acceptor. DCIP reduction is stoichiometrically equivalent to oxidation of dihydroorotate. Changes in absorbance were quantified on a plate reader and data were analyzed to measure the reduction of DCIP as a decrease in absorbance at 600 nm.

Assay [2] addresses T2, Dihydroorotate dehydrogenase (quinone), mitochondrial [100-517] (Plasmodium berghei (strain Anka), UniProt A0A509AEH5).
T2 construct: 100-517
T2 sequence (A0A509AEH5 whole entry): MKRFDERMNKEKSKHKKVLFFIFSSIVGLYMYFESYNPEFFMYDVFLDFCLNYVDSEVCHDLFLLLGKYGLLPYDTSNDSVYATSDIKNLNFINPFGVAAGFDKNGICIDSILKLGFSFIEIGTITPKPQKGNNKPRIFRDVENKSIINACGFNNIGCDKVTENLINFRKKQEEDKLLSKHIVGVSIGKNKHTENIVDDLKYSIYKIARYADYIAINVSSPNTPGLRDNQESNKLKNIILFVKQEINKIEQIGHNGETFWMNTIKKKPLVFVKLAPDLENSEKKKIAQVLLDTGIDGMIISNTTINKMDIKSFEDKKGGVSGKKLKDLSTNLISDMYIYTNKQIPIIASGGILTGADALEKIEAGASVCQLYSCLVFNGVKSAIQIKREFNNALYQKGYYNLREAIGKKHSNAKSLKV
As for the experimental part: as §1

Assay [3] has as its target T3, Dihydroorotate dehydrogenase (quinone), mitochondrial [30-395] (Homo sapiens, UniProt Q02127).
T3 construct: 30-395
As for the experimental part: as §1

SMILES strings stand for the structures.

T3 sequence (Q02127 30-395): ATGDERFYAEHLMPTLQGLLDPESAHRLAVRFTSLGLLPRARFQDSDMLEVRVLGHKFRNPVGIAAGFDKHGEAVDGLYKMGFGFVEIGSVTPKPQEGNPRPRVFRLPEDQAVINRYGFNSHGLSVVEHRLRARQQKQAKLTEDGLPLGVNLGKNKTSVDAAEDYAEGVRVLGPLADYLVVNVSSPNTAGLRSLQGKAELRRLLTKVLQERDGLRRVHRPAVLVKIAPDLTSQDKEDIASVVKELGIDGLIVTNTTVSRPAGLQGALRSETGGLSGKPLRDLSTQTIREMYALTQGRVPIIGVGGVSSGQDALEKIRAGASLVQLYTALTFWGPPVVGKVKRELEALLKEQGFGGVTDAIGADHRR

For `Cc1cc(Nc2ccccc2C#N)n2ncnc2n1` [2-({5-methyl-[1,2,4]triazolo[1,5-a]pyrimidin-7-yl}amino)benzonitrile], the IC50 in assay [1] (pH 8, 20 °C) was over 100 µM; in assay [2], over 100 µM. As for `Cc1cc(Nc2c(F)c(F)c(F)c(F)c2F)n2ncnc2n1` [5-methyl-N-(2,3,4,5,6-pentafluorophenyl)-[1,2,4]triazolo[1,5-a]pyrimidin-7-amine], the IC50 in assay [1] and in assay [2] was over 100 µM throughout.

For `Cc1cc(Nc2ccc(F)c(F)c2F)n2ncnc2n1` [5-methyl-N-(2,3,4-trifluorophenyl)-[1,2,4]triazolo[1,5-a]pyrimidin-7-amine], in assay [2], the IC50 was over 100 µM. Regarding `Cc1cc(Nc2c(F)c(F)cc(F)c2F)n2ncnc2n1` [5-methyl-N-(2,3,5,6-tetrafluorophenyl)-[1,2,4]triazolo[1,5-a]pyrimidin-7-amine], the IC50 in assay [1] (pH 8, 20 °C) is over 100 µM; in assay [2], over 100 µM.

In assay [2], `Cc1cc(Nc2cc(F)c(F)cc2F)n2ncnc2n1` [5-methyl-N-(2,4,5-trifluorophenyl)-[1,2,4]triazolo[1,5-a]pyrimidin-7-amine] gave an IC50 of over 100 µM. `Cc1cc(Nc2c(F)cc(F)cc2F)n2ncnc2n1` [5-methyl-N-(2,4,6-trifluorophenyl)-[1,2,4]triazolo[1,5-a]pyrimidin-7-amine]: the IC50 in assay [1] (pH 8, 20 °C) is over 100 µM; in assay [2], over 100 µM.

For `Cc1cc(Nc2ccccc2C)n2ncnc2n1` [5-methyl-N-(2-methylphenyl)-[1,2,4]triazolo[1,5-a]pyrimidin-7-amine], the half-inhibitory concentration (IC50) was over 100 µM in assay [1] (pH 8, 20 °C) and over 100 µM in assay [2]. On to `Cc1cccc(Nc2cc(C)nc3ncnn23)c1` [5-methyl-N-(3-methylphenyl)-[1,2,4]triazolo[1,5-a]pyrimidin-7-amine], for which, in assay [2], the IC50 is over 100 µM. `Cc1cc(Nc2ccccc2C(F)(F)F)n2ncnc2n1` [5-methyl-N-[2-(trifluoromethyl)phenyl]-[1,2,4]triazolo[1,5-a]pyrimidin-7-amine]: the IC50 is over 100 µM in assay [1] (pH 8, 20 °C) and over 100 µM in assay [2]. Consider `Cc1cc(Nc2ccc3ccccc3c2)n2ncnc2n1` [JMC521864 Compund DSM1], for which the IC50 in assay [3] was over 200 µM.

On to `Cc1cc(Nc2ccccc2)n2ncnc2n1` [JMC521864 Compund DSM12], for which the IC50 was over 200 µM in assay [3]; over 200 µM in assay [1] (pH 8, 20 °C); over 10 µM in assay [2]. On to `Cc1cc(Nc2cccc(F)c2F)n2ncnc2n1` [N-(2,3-difluorophenyl)-5-methyl-[1,2,4]triazolo[1,5-a]pyrimidin-7-amine], for which, in assay [2], the IC50 was over 100 µM.

Regarding `Cc1cc(Nc2cc(F)ccc2F)n2ncnc2n1` [N-(2,5-difluorophenyl)-5-methyl-[1,2,4]triazolo[1,5-a]pyrimidin-7-amine], the IC50 in assay [1] (pH 8, 20 °C) was over 50 µM; in assay [2], over 100 µM.

On to `Cc1cc(Nc2c(F)cccc2F)n2ncnc2n1` [N-(2,6-difluorophenyl)-5-methyl-[1,2,4]triazolo[1,5-a]pyrimidin-7-amine], for which the IC50 in assay [1] (pH 8, 20 °C) was over 100 µM; in assay [2], over 100 µM. Turning to `Cc1cc(Nc2ccccc2Cl)n2ncnc2n1` [N-(2-chlorophenyl)-5-methyl-[1,2,4]triazolo[1,5-a]pyrimidin-7-amine], the half-inhibitory concentration (IC50) was over 100 µM in assay [1] (pH 8, 20 °C) and over 100 µM in assay [2].

`Cc1ccc(Nc2cc(C)nc3ncnn23)c(F)c1` [N-(2-fluoro-4-methylphenyl)-5-methyl-[1,2,4]triazolo[1,5-a]pyrimidin-7-amine]: the half-inhibitory concentration (IC50) in assay [2] was over 100 µM. As to `Cc1cc(Nc2ccccc2F)n2ncnc2n1` [N-(2-fluorophenyl)-5-methyl-[1,2,4]triazolo[1,5-a]pyrimidin-7-amine], the IC50 was over 100 µM in assay [1] (pH 8, 20 °C) and over 100 µM in assay [2]. In the case of `Cc1cc(Nc2cccc(F)c2)n2ncnc2n1` [N-(3-fluorophenyl)-5-methyl-[1,2,4]triazolo[1,5-a]pyrimidin-7-amine], the IC50 in assay [2] is over 100 µM. Still for that read-out and setting: the result for `Cc1cc(Nc2ccc(Cc3ccccc3)cc2)n2ncnc2n1` [N-(4-benzylphenyl)-5-methyl-[1,2,4]triazolo[1,5-a]pyrimidin-7-amine] reads over 100 µM; that for `Cc1cc(Nc2ccc(F)cc2)n2ncnc2n1` [N-(4-fluorophenyl)-5-methyl-[1,2,4]triazolo[1,5-a]pyrimidin-7-amine], over 100 µM. On the same count and under the same terms, the result for `COc1ccc(Nc2cc(C)nc3ncnn23)cc1` [N-(4-methoxyphenyl)-5-methyl-[1,2,4]triazolo[1,5-a]pyrimidin-7-amine] reads over 50 µM. Take `Cc1cc(Nc2ccc3cc4ccccc4cc3c2)n2ncnc2n1` [N-(anthracen-2-yl)-5-methyl-[1,2,4]triazolo[1,5-a]pyrimidin-7-amine]: the figures for the IC50 in assay [3] and in assay [2] were over 200 µM and 3.7 µM, respectively. As to `Cc1cc(Nc2cc(C(F)(F)F)cc(C(F)(F)F)c2)n2ncnc2n1` [N-[3,5-bis(trifluoromethyl)phenyl]-5-methyl-[1,2,4]triazolo[1,5-a]pyrimidin-7-amine], the IC50 in assay [1] and in assay [2] was over 100 µM each time.
